Experimental data published in patent publication US20230302009A1, “BACE1 INHIBITOR TREATMENT FOR S[…] STORM” (priority 2020, published 2023).

Key:
[1] = AD clinical trials (refs 27, 28, 34, 35); cited from earlier work
[2] = tested on: LPS-challenged mice; test: H&E histology, tissue injury score after LPS; conditions: LPS only or LPS plus MK-8931
[3] = tested on: LPS-challenged mice; conditions: mice without LPS treatment, MK-8931 50 mg/kg oral
[4] = tested on: LPS-challenged mice; test: Survival rescue after lethal dose of LPS; type: in vivo, C57BL/6 mice
[5] = MK-8931 plus LPS versus LPS only

| SMILES | tolerability in patients [1] | tissue injury in spleen and liver [2] | plasma levels of cytokines/chemokines, MK-8931 alone [3] | mice died ([4]; LPS 15 mg/kg i.p. plus MK-8931 50 mg/kg oral, 3 of 14 mice, between 20 to 96 hours after LPS) [%] | mice survived ([4]; LPS 15 mg/kg i.p. plus MK-8931 50 mg/kg oral, 11 of the 14 mice) [%] | increase of survival [4, 5] [%] | reduction of mortality rate [4, 5] [fold] |
| --- | --- | --- | --- | --- | --- | --- | --- |
| CC#Cc1cncc(-c2ccc3c(c2)C2(N=C(C)C(N)=N2)C2(CCC(OC)CC2)C3)c1 (stereo not drawn) [AZD3293] | well-tolerated |  |  |  |  |  |  |
| C[C@@]1(c2nc(NC(=O)c3ncc(C(F)(F)F)cc3Cl)ccc2F)CO[C@@](C)(C(F)(F)F)C(N)=N1 [CNP50] | well-tolerated |  |  |  |  |  |  |
| CN1C(N)=N[C@](C)(c2cc(NC(=O)c3ccc(F)cn3)ccc2F)CS1(=O)=O [MK-8931] | safe oral drug and well-tolerated | No significant tissue injury | did not affect | 21.4 | 78.6 | 367 | 3.7 |
